Measured values published in the Biogen ADME set (Fang et al. 2023).
≈ marks a conversion by molar mass, not a printed value.

Conditions: for aqueous solubility: pH 6.8

| MDR1-MDCK efflux ratio | intrinsic clearance, human liver microsomes [L/h/kg] | intrinsic clearance, rat liver microsomes [L/h/kg] | aqueous solubility [mg/mL] | fraction unbound, human plasma | fraction unbound, rat plasma | SMILES |
| --- | --- | --- | --- | --- | --- | --- |
| 0.624 | 0.991 | 4.59 | – | – | – | COc1ccc(CC(=O)Nc2ccc(F)nc2)cc1 |
| 1.18 | 4.08 | 30.4 | 0.0264 (≈ 81.7 µM) | – | – | Cc1cc(C)c(-n2cccn2)c(-c2cn(C[C@@H]3CCCO3)nn2)c1 |
| 5.92 | 0.413 | 76.4 | – | – | – | O=C(NCC1CCC2(CC1)OCCO2)c1[nH]nc2c1CCCC2 |
| 2.11 | 2.36 | 22.2 | 0.0276 (≈ 85.6 µM) | – | – | O=C(CSc1nnc(-c2cccs2)[nH]1)N1CCCCCC1 |
| 35.1 | 3.04 | 23.4 | – | – | – | CNCc1cc(N(C)C)nc(C2CCCN2C(=O)CCc2c[nH]c3ccccc23)n1 (stereo unspecified) |
| 2.59 | 4.55 | 31.1 | 0.0291 (≈ 58.7 µM) | – | – | COc1cc(Br)c(Nc2nc(-c3c(C)nc4ncccn34)cs2)c(Br)c1 |
| 0.69 | 5.57 | 56.5 | 0.064 (≈ 207 µM) | – | – | Cc1cc(C(=O)N(C)Cc2ccc(Br)cc2)no1 |
| 0.134 | 9.56 | 27.1 | 0.045 (≈ 128 µM) | – | – | CCOc1ccc(Nc2nc(-c3c(C)nc4ccccn34)cs2)cc1 |
| 0.986 | – | – | 0.00026 (≈ 0.727 µM) | – | – | Cc1sc2ncnc(OCC(=O)Nc3ccc4c(c3)OCO4)c2c1C |
| 0.871 | 0.553 | 15.3 | 0.0414 (≈ 131 µM) | – | – | Cc1nc(NC2(c3cccc(Cl)c3)CC2)c2c(C)noc2n1 |
| 0.832 | 0.472 | 3.56 | 0.0775 (≈ 242 µM) | – | – | O=C(O)c1cnc(/C=C/c2csc(-c3ccsc3)n2)s1 |
| 19.7 | ≤ 0.284 | ≤ 0.64 | 0.0478 (≈ 153 µM) | – | – | Cc1cc(F)ccc1CC(=O)N[C@@H]1CCOC[C@H]1OCCO |
| – | 1.85 | 9.97 | – | – | – | CCOC(=O)c1c(C)n(C)c2ccc(O)cc12 |
| 0.652 | 8.7 | 148 | 0.0415 (≈ 147 µM) | – | – | CSc1cccc(-c2ccccc2-c2nnc(C)o2)c1 |
| 0.465 | 3.97 | 68.5 | – | – | – | Cc1ccc(CCC(=O)Nc2nccc3sccc23)o1 |
| 1.65 | 2.77 | 20.7 | – | – | – | COc1cc(-c2ccc(Cn3nc(C)cc3C)cn2)cc(OC)c1OC |
| – | – | – | 0.0173 (≈ 63.5 µM) | – | – | CSCc1noc(COc2ccc(F)cc2F)n1 |
| 1.55 | ≤ 0.284 | ≤ 0.64 | 0.0387 (≈ 179 µM) | – | – | CC(=O)Nc1ccc2nc(C)cc(O)c2c1 |
| – | 0.883 | 23.9 | 0.00459 (≈ 12.4 µM) | – | – | c1ccc(-c2ccc(Cn3ccnc3-c3cc4n(n3)CCCNC4)cc2)cc1 |
| 25.7 | ≤ 0.284 | 1.74 | 0.0804 (≈ 313 µM) | – | – | Cc1nccc(C2CCN(Cc3ncc[nH]3)CC2)n1 |

| MDR1-MDCK efflux ratio | intrinsic clearance, human liver microsomes [L/h/kg] | intrinsic clearance, rat liver microsomes [L/h/kg] | aqueous solubility [mg/mL] | fraction unbound, human plasma | fraction unbound, rat plasma | SMILES |
| --- | --- | --- | --- | --- | --- | --- |
| 4.56 | ≤ 0.284 | ≤ 0.64 | 0.0336 (≈ 158 µM) | – | – | Cn1cnnc1CNc1ccccc1C#N |
| 0.849 | 1.44 | 57.3 | – | – | – | Cc1ccc2occ(CN3C[C@H]4CCCN4C[C@H]3C)c(=O)c2c1 |
| 1.96 | ≤ 0.284 | 4.44 | 0.0553 (≈ 209 µM) | – | – | CC(C)Cn1cnc2c1c(=O)[nH]c(=O)n2CC(C)C |
| – | – | – | 0.0561 (≈ 187 µM) | – | – | CCc1cccc(NC(=O)COC(=O)c2cnc(C)cn2)c1 |
| 1.68 | – | – | 0.00044 (≈ 1.07 µM) | – | – | CS(=O)(=O)N1CCc2cc(C(=O)NCCOc3ccc4ccccc4c3)ccc21 |
| 8.33 | ≤ 0.284 | 1.9 | 0.0597 (≈ 161 µM) | – | – | Cn1c(C(=O)N2CCN(CCc3ccccc3)C(=O)C2)cc(=O)n(C)c1=O |
| 1.48 | 40.7 | 125 | 0.0243 (≈ 55 µM) | – | – | O=C(c1ccc2oc(CCCc3ccccc3)nc2c1)N1CCC(Oc2cccnc2)CC1 |
| 11.3 | ≤ 0.284 | 6.15 | 0.0425 (≈ 138 µM) | – | – | CC1(C)Oc2ccc(Cl)cc2[C@@H]2O[C@@H]3CCNC[C@@H]3C[C@H]21 |
| 123 | – | – | – | – | – | COc1cc(Nc2c(C#N)cnc3cc(OCCCN4CCN(C)CC4)c(OC)cc23)c(Cl)cc1Cl |
| 2.86 | ≤ 0.284 | ≤ 0.64 | – | – | – | O=c1oc2cccnc2n1Cc1ncc(-c2ccc(F)cc2)o1 |
| – | 0.515 | 4.63 | – | – | – | CN1C(=O)N[C@H](Cc2c[nH]c3c(Cl)cccc23)C1=O |
| – | 0.611 | 1.44 | – | – | – | CN(c1ccccc1N)S(C)(=O)=O |
| 2.57 | 1.44 | 16.2 | 0.036 (≈ 108 µM) | – | – | CN(C)CCNc1c2c(c(C#N)c3nc4ccccc4n13)CCCC2 |
| 0.634 | ≤ 0.284 | 1.81 | – | – | – | N#Cc1c(F)cccc1Oc1cccnc1 |
| 1.5 | 1.03 | 37.4 | – | – | – | CC(C)(C)CCCNC(=O)N1CCN(Cc2ccon2)CC1 |
| 0.485 | 1.01 | 8.05 | 0.00296 (≈ 11.2 µM) | – | – | Clc1cc2ncc(-n3ccnc3)nc2cc1Cl |
| 1.08 | 1.74 | 4.5 | 0.00873 (≈ 25.1 µM) | – | – | Cc1cc(C(=O)Nc2cccc(-c3cnco3)c2)c2c(C)nn(C)c2n1 |
| 0.727 | ≤ 0.284 | 4.22 | – | – | – | Cc1ccc(-n2nc(NCc3cnn(C)c3)cc2C)cc1 |
| – | 0.853 | 7.95 | 0.00296 (≈ 6.03 µM) | – | – | CS(=O)(=O)c1cccc(CNc2nc(Nc3ccc4c(c3)CCC(=O)N4)ncc2C(F)(F)F)c1 |
| 2.65 | ≤ 0.284 | 1.25 | – | – | – | C[C@@]12CCCN1C(=O)[C@H](C1CCCCC1)NC2=O |

| MDR1-MDCK efflux ratio | intrinsic clearance, human liver microsomes [L/h/kg] | intrinsic clearance, rat liver microsomes [L/h/kg] | aqueous solubility [mg/mL] | fraction unbound, human plasma | fraction unbound, rat plasma | SMILES |
| --- | --- | --- | --- | --- | --- | --- |
| 0.525 | 2.62 | 24.7 | 0.0447 (≈ 137 µM) | – | – | CCn1ncc(-c2cc(C(F)F)nc(NCCCOC)n2)c1C |
| 0.879 | ≤ 0.284 | ≤ 0.64 | 0.0615 (≈ 148 µM) | – | – | Cc1ccc(C(=O)O)cc1NS(=O)(=O)c1csc(C(=O)Nc2ccccc2)c1 |
| – | 5.96 | 134 | 0.0135 (≈ 42.5 µM) | – | – | CCCc1cc(-c2nn3c(C4CCCC4)nnc3s2)n(C)n1 |
| 1.92 | 5.92 | 57 | – | – | – | CC(C)(C)c1cnc(CN2CCC(=O)Nc3cc(F)ccc32)o1 |
| – | – | – | 0.00019 (≈ 0.72 µM) | – | – | Clc1ccc2oc(/C=C/c3csnn3)nc2c1 |
| 0.641 | 1.25 | 7.96 | 0.0348 (≈ 140 µM) | – | – | O=C(Cc1cccs1)NCc1ccccc1F |
| 0.786 | ≤ 0.284 | ≤ 0.64 | 0.0547 (≈ 225 µM) | – | – | Cc1nn(C)c(C)c1C(=O)NCc1ccccc1 |
| 0.648 | ≤ 0.284 | ≤ 0.64 | – | – | – | OCc1cnnn1-c1cncc(Cl)n1 |
| – | ≤ 0.284 | ≤ 0.64 | – | – | – | N#CCNC(=O)c1ccc(C#N)c(Cl)c1 |
| 0.932 | 11 | 112 | 0.0492 (≈ 155 µM) | – | – | Cn1cc(C#N)cc1-c1nc(C2CC2)nn1CCc1ccccc1 |
| 8.66 | 6.77 | 165 | – | 0.0803 | 0.0818 | CN(Cc1ccccc1)C1(C(=O)N2CCNC(=O)CC2)Cc2ccccc2C1 |
| 28 | 16.8 | 99 | – | – | – | O=C(c1cccc(Nc2ncccn2)c1)N1CCOCC(Cc2cccc3ccncc23)C1 (stereo unspecified) |
| 10.2 | 33.4 | 63.3 | 0.051 (≈ 131 µM) | – | – | CC(C)c1nccn1-c1cccc([C@@H]2CCCN2C(=O)CCc2ccccc2)n1 |
| 0.652 | ≤ 0.284 | 4.32 | 0.0239 (≈ 110 µM) | – | – | Cc1cccn(Cc2cccc(F)c2)c1=O |
| – | ≤ 0.284 | 4.55 | 0.0647 (≈ 204 µM) | – | – | CCOC(C)C(=O)N1CCC(n2c(=O)[nH]c3ccccc32)CC1 (stereo unspecified) |
| 0.484 | 10.9 | 59.1 | 0.0084 (≈ 23.2 µM) | – | – | COc1ccc2nc(C)c(C(=O)Nc3ccccc3N3CCCC3)cc2c1 |
| – | 7.29 | 157 | – | – | – | CC(C)(C)c1csc(Cn2ccnc2-c2ccccn2)n1 |
| 2.63 | 0.316 | ≤ 0.64 | – | – | – | Cc1ccc(OCN2CCCCC2=O)nc1 |
| 2.49 | 8.77 | 92.4 | – | – | – | CCSCCC(=O)NCCn1nc(C)c(CC)c1C |
